Test results published in patent publication US20240059729A1, “MULTIFUNCTIONAL CYCLIC DINUCLEOTIDE AND USE THEREOF” (TYLIGAND BIOSCIENCE (SHANGHAI) LIMITED, priority 2020, published 2024).
Where a name gives a salt, the structure may show the parent alone.

Assays:
CT26 cells = test: Immunological memory function in CT26 transplantation tumor model, syngeneic or nude mouse (re-inoculation); type: in vivo, BALB/c immune-competent or nude mice; conditions: for Average tumor volume after re-inoculation of CT26 cells: immunocompetent BALB/c mice
Experimental: BALB/c immune-competent or nude mice of 6-8 weeks (purchased from Shanghai Ling Chang Biotech Co., Ltd.) were inoculated with 5×10^5 CT26 cells (supplied by Taicang Zexin Biotechnology Co., Ltd., ATCC #CRL-2638) subcutaneously on the right back dorsal, respectively, and the inoculation volume was 0.1 mL. When tumors grew to an average volume of 100 mm^3, they were randomized according to tumor size and mouse body weight and dosed. The day of the first dose was Day 0. Two doses were administered on Day 0 and Day 4, with 50 μg of compound/mouse (i.e., 2.5 mg/kg) injected intratumorally, with the same volume of PBS (Hyclone, Cat #SH30258.01) as a control. Mice in the nude or BALB/c mice groups were sacrificed on Day 9 or Day 13 post-dosing, respectively. On Day 21 post-dosing, mice were inoculated again subcutaneously on the left back dorsal with 5×10^5 CT26 cells in a volume of 0.1 mL. Blank BALB/c or nude mice without any treatment were also inoculated as controls. During the experiment, tumor volumes and the body weights were measured 3 times per week, and the tumor volume was calculated as V=D×d×d/2 (Ibid).

[1] = Discovery and identification of metabolites in hepatocytes; type: in vitro ADME, mouse, rat, dog, monkey, human; conditions: 5 species of hepatocytes, 240 min; FIG. 4-B
Excerpt: The main metabolites of the compounds of the invention in 5 species (mouse, rat, dog, monkey, human) of hepatocytes were similarly identified according to standard methods of in vitro metabolic stability studies conventional in the art, for example (Kems, Edward H. and Di Li (2008). Drug-like Properties: Concepts, Structure Design and Methods: From ADME to Toxicity Optimization, San Diego: Academic Press; Di, Li et al, Optimization of a High Throughput Microsomal Stability Screening Assay for Profiling Drug Discovery Candidates, J Biomol Screen. 2003, 8(4), 453).
The hepatocytes used in the experiment: human hepatocytes (SHQY, Cat. #BQHPCH10, Lot. #HEP190006-TA05), dog hepatocytes (BioIVT, Cat. #M00205, Lot. #ZMB); monkey hepatocytes (XENOTECH, Cat. #PPCH2000, Lot. #2010022), rat hepatocytes (SHQY, Cat. #BQR1000⋅H15, Lot. #HEP134049), and mouse hepatocytes (BioIVT, Cat. #M005052, Lot. #MEO).
A HI hepatocyte maintenance medium (BIOIVT, Cat. #Z99009; Lot. #C02060C) was pre-warmed to 37° C. Cryopreserved hepatocyte tubes were removed from a liquid nitrogen tank and immediately placed in a shaking water bath at 37±1° C. for 2 minutes±15 seconds. […] The hepatocytes were counted and then the cell suspension was diluted in HI medium to the appropriate density (viable cell density=2×10^6 cells/mL). […]

Question: For `Nc1nc2c(ncn2[C@@H]2O[C@@H]3CO[P@@](=O)(S)OC4C(F)[C@H](n5cnc6c(N)nc(Cl)nc65)O[C@@H]4CO[P@@](=O)(S)OC2C3O)c(=O)[nH]1` (stereo partly drawn) [Example 10, (2′,3′)-cyclo-(Rp,Rp)-[2′-O-phosphorothioate-diester-guanosine]-[3′-O-phosphorothioate-diester-2-chloro-2′-deoxy-2′-fluoro-beta-adenosine] diammonium salt], which “CT26 tumor growth inhibition in immunocompetent and immunodeficient mice (in words)” value (CT26 cells; 50 μg/mouse intratumorally, Day 0 and Day 4) is on record?
Answer: The value was “significantly inhibited CT26 tumor growth in both immunocompetent and immunodeficient mice”.

Question: And the “Tumor status in treated immunocompetent mice” value (CT26 cells; Day 5 post-dosing)?
Answer: The value was “the tumors completely disappeared”.

Question: What about the “Average tumor volume after re-inoculation of CT26 cells” value (CT26 cells; re-inoculated Day 21, end of experiment Day 33) of the same molecule?
Answer: The value was 101 mm^3.

Question: What about the “Average tumor volume after re-inoculation of CT26 cells” value (CT26 cells; re-inoculated Day 21, measured Day 30) of the same molecule?
Answer: The value was 29 mm^3.

Question: What about the “Immunological memory in immunocompetent mice” value (CT26 cells; re-inoculated CT26 cells) of the same molecule?
Answer: The value was “developed an immunological memory”.

Question: What about the “Immunological memory in immunodeficient nude mice” value (CT26 cells; re-inoculated CT26 cells Day 21) of the same molecule?
Answer: Its value is “no immunological memory has been generated”.

Question: What about the “Main metabolite in hepatocytes” value [1] of the same molecule?
Answer: Its value is “Clofarabine”.
